Patent publication US20260001911A1, “CYCLIC PEPTIDE COMPOUND CONTAINING PIPERAZIC ACID, METHOD OF PRODUCING SAME, AND USES OF SAME” (MolGenBio Co., Ltd., priority 2020, published 2026)
Like-named read-outs stand apart in the source and are kept apart here. Numbered stars: 1 amine (or outer) side, 2 acyl side, 3 side chain; on linkers, the order of the positions; unused ones are H or OH. Square brackets hold non-standard residues; d marks the D form. Peptide text beside a SMILES is read from it. NMeF = CN[CH](Cc1ccccc1)C(=O)O; X1 = O=C(C1CCCNN1[*:1])[*:2]; NMeV = CN[CH](C(=O)O)C(C)C; NMeS = CN[CH](CO)C(=O)O; NMeA = CN[CH](C)C(=O)O; βAla = NCCC(=O)O

Key:
[1] = system: HCT116-5-FU resistant cell line; assay: SRB cell growth inhibition, 5-fluorouracil resistant HCT116-5-FU
Method: (§1) With Lenziamide compound prepared as in Example 1 added, the cell lines were cultured for about 72 hours. Thereafter, the resulting cell cultures were stained with sulforhodamine (SRB) that […] and washed to remove non-binding dye, and the stained cells were suspended in 10 mM of Tris (pH 10.0). The absorbance was measured at 515 nm and the cell proliferation was measured. Using TableCurve 2D v5.01 software (Systant Software Inc., Richmond, CA, USA), half maximal inhibitory concentration (IC50) value was calculated by nonlinear regression analysis method. All reagents were purchased from Sigma-Aldrich. As a positive control, etoposide was used.
In order to prepare HCT116-5-FU resistant cell line, 5-fluorouracil was treated to HCT116 cells 3 times a week, and only surviving cells were subcultured with treatment of increasing concentrations of 5-fluorouracil for 3 months. HCT116-5-FU resistant cell line was established by finally collecting and culturing only the surviving cells.

[2] = system: colorectal cancer cell HCT116; assay: cells
Method: (§2) 6 types of cancer cell lines of Lung adenocarcinoma cell A549, colorectal cancer cell HCT116, breast cancer cell MDA-MB-231, liver adenocarcinoma cell SK-HEP-1, stomach adenocarcinoma cell SNU638, and chronic myeloid leukemia cell K562,and a normal cell line of pulmonary fibroblast MRC-5 were purchased from Korean Cell Line Bank (Seoul, Korea).
as §1

[3] = system: Lung adenocarcinoma cell A549; assay: cells
Method: as §2, §1

[4] = system: stomach adenocarcinoma cell SNU638; assay: cells
Method: as §2, §1

[5] = system: chronic myeloid leukemia cell K562; assay: cells
Method: as §2, §1

[6] = system: pulmonary fibroblast MRC-5; assay: cells
Method: as §2, §1

[7] = system: liver adenocarcinoma cell SK-HEP-1; assay: cells
Method: as §2, §1

[8] = system: breast cancer cell MDA-MB-231; assay: cells
Method: as §2, §1

[9] = system: metastatic colorectal cancer cell line (L-2); assay: Expression of metastasis related biomarkers; format: cell-based; conditions: L-2 cells, 0 μM to 4 μM
Method: of non-metastatic cancer, thereby making it very difficult to treat it. A colorectal cancer cell line (C-1) was injected into appendix of laboratory mice and left for 6 weeks to artificially induce growth and metastasis of tumor, and colorectal cancer cells metastasized to the liver (L-2) were isolated and cultured. After administering 0 μM to 4 μM of lenziamide A to colorectal cancer cell line (C-1) and metastatic colorectal cancer cell line (L-2) obtained above, expression of biomarkers related to metastasis of cancer was identified by reverse transcription polymerase chain reaction (RT-PCR), and the results are shown in FIG. 6A.

[10] = system: HCT116-5-FU resistant cell line xenograft; assay: HCT116-5-FU resistant xenograft animal model; format: in vivo, BALB/c mice; conditions: 10 mg/kg intravenous
Method: HCT116-5-FU resistant cell line prepared as described in Example 2-5 was diluted to a concentration of […] in RPMI medium, and 0.2 mL of the diluted cell line was injected subcutaneously to right flanks of BALB/c mice (5-week old, male). When the size of the tumor reached about 100 mm^3, groups were randomly divided based on the size of the tumor.
Lenziamide A (10 mg/body weight kg), 5-FU (30 mg/body weight kg), or a combination thereof (10 mg/body weight kg of lenziamide A+30 mg/body weight kg of 5-FU) was administered by intravenous injection to resistant cancer cell line injected xenograft animal models. A mixture mixed at a ratio of dimethyl sulfoxide: Cremophor: saline=0.5:0.5:9 was used as a negative control. Volumes of tumor (mm^3) and body weights of the xenograft animal models (g) were measured from the first day of administration, and the results are shown in FIGS. 5A and 5B.

[11] = system: metastatic colorectal cancer cell line (L-2); assay: Metastatic colorectal cancer cell (L-2) injected animal model; format: in vivo, laboratory mice; conditions: 5 mg/kg or 15 mg/kg
Method: As described in Example 2-7 (1), a metastatic colorectal cancer cell line (L-2) was re-injected into appendix of laboratory mice to form tumor, and lenziamide A was administered at a dose of 5 mg/body weight kg or 15 mg/body weight kg. A mixture mixed at a ratio of dimethyl sulfoxide: Cremophor: saline=0.5:0.5:9 was used as a negative control. 10 mg/body weight kg of irinotecan was administered as a positive control. Volumes of tumor (mm3) and body weights of the xenograft animal model (g) were measured from the first day of administration, and the results are shown in FIGS. 6B and 6C.

[12] = system: colorectal cancer cell line HCT116; assay: Cell cycle analysis by flow cytometry; format: cell-based, human
Method: In order to identify the action mechanism of lenziamide A showing an excellent cell proliferation inhibiting efficacy, cells of colorectal cancer cell line HCT116 were treated with lenziamide A at a concentration of 0 μM, 1.25 μM, 2.5 μM, or […]. The cell cycle control effect of lenziamide A was confirmed by using flow cytometry method, and the results are shown in FIGS. 2A and 2B.

HCT116 cells = assay: Annexin V/propidium iodide dual-stain analysis; format: cell-based, human
Method: In order to confirm that sub G1 cell accumulation due to G2/M arrest effect of lenziamide A leads to cell apoptosis, HCT116 cells were treated with different concentrations of lenziamide A. Thereafter, cell death induction efficacy of lenziamide A was evaluated by using Annexin V/propidium iodide dual-stain analysis method which can identify cell deaths. The results of Annexin V/propidium iodide dual-stain analysis were shown in FIG. 3A, and stages of cells according to the concentration of lenziamide A were shown in FIG. 3B. The ratios (%) of live cells, early apoptosis, late apoptosis, necrosis, and total cell death were calculated.

[13] = system: HCT116 colorectal cancer xenograft; assay: HCT116 xenograft animal model; format: in vivo; conditions: 10, 30 mg/kg intravenous
Method: Cells of HCT116, a human-derived colorectal cancer cell line, were diluted to a concentration of 5×10^6 units/mL in RPMI (Roswell Park Memorial Institute) medium, and 0.2 mL of the diluted cells was injected subcutaneously to right flank of BALB/c mice (5-week old, male). When the size of the tumor reached about 100 mm^3, groups were randomly divided based on the size of the tumor.
Lenziamide A was administered by intravenous injection at a dose of 10 mg/body weight kg or 30 mg/body weight kg to the prepared xenograft animal models. A mixture mixed at a ratio of dimethyl sulfoxide: Cremophor: saline=0.5:0.5:9 was used as a negative control, and irinotecan was used as a positive control. Volume of the tumor (mm^3), body weight of the xenograft animal model (g), and final weight of the tumor (g) were measured from the first day of administration, and the results are shown in FIGS. 4A to 4C.

[14] = Homo sapiens, read-out: IC50 HCT116-5-FU
[15] = Homo sapiens, HCT-116, read-out: IC50 HCT116

IC50 [1, 14]	IC50 [2, 15]	IC50 ([2]; 72 h)	IC50 ([3]; 72 h)	IC50 ([4]; 72 h)	IC50 ([5]; 72 h)	IC50 ([7]; 72 h)	IC50 ([8]; 72 h)	SMILES	Fold change (HCT116-5-FU/HCT116) [1]	IC50 ([6]; 72 h)	also measured
1920 nM	760 nM	–	–	–	–	–	–	COc1cc([C@@H]2c3cc4c(cc3[C@@H](O[C@@H]3O[C@@H]5CO[C@@H](C)O[C@H]5[C@H](O)[C@H]3O)[C@H]3COC(=O)[C@H]23)OCO4)cc(OC)c1O [Etoposide, reference compound]	2.53	–	IC50 ([2]; Homo sapiens, HCT-116, 72 h, read-out: IC50 HCT116): 1860 nM; IC50 ([3]; Homo sapiens, A549, 72 h, read-out: IC50 A549): 590 nM; IC50 ([4]; Homo sapiens, SNU-638, 72 h, read-out: IC50 SNU638): 480 nM; IC50 ([5]; Homo sapiens, K562, 72 h, read-out: IC50 K562): 760 nM; IC50 ([6]; Homo sapiens, MRC5, 72 h, read-out: IC50 MRC-5): 11600 nM; IC50 ([7]; Homo sapiens, SK-HEP1, 72 h, read-out: IC50 SK-HEP-1): 450 nM; IC50 ([8]; Homo sapiens, MDA-MB-231, 72 h, read-out: IC50 MDA-MB-231): 3360 nM
5650 nM	1520 nM	–	–	–	–	–	–	CCc1c2c(nc3ccc(OC(=O)N4CCC(N5CCCCC5)CC4)cc13)-c1cc3c(c(=O)n1C2)COC(=O)[C@]3(O)CC [Irinotecan]	3.72	–	–

Continued, compound first:

SMILES	IC50 [1, 14]	IC50 [2, 15]	IC50 ([2]; 72 h)	IC50 ([3]; 72 h)	IC50 ([4]; 72 h)	IC50 ([5]; 72 h)	IC50 ([7]; 72 h)	IC50 ([8]; 72 h)	Fold change (HCT116-5-FU/HCT116) [1]	IC50 ([6]; 72 h)	also measured
O=c1[nH]cc(F)c(=O)[nH]1 [5-fluorouracil]	36700 nM	4220 nM	–	–	–	–	–	–	8.70	–	–
CCC(C)C1NC(=O)C(Cc2ccccc2)N(C)C(=O)C2CCCNN2C(=O)C(CO)N(C)C(=O)C(CC(C)C)NC(=O)C(Cc2ccccc2)N(C)C(=O)C(C)NC(=O)C(C(C)C)N(C)C(=O)CCNC(=O)C(C)N(C)C1=O (stereo not shown) [Lenziamide A] (cyclo([X1][NMeF]I[NMeA][βAla][NMeV]A[NMeF]L[NMeS]); configuration not given here)	–	–	370 nM	800 nM	440 nM	770 nM	390 nM	620 nM	–	> 20000 nM	expression of E-cadherin [9]: increased; expression of N-Cadherin and vimentin [9]: decreased; body weight [10]: without significant weight loss; growth of resistant tumor [10]: effectively inhibited growth of resistant tumor; growth of HCT116-5-FU resistant cell line [1]: effectively inhibited growth of HCT116-5-FU resistant cell line; IC50 ([1]; 72 h): 420 nM; Fold change (HCT116-5-FU/HCT116) ([1]; IC50 of HCT116-5-FU with respect to IC50 of HCT116): 1.16; growth of tumor in the appendix [11]: also inhibited; metastasis of the tumor to other organs [11]: effectively inhibited; sub G1 cell accumulation (cell death) ([12]; after G2/M arrest, high concentration): followed by sub G1 cell accumulation; G2/M cell cycle arrest ([12]; until 24 hours after treatment, 0-5 μM): G2/M cell cycle arrest was increased; early apoptosis cell population (HCT116 cells; 5 μM): about 20.37%; late apoptosis cell population (HCT116 cells; 5 μM): 51.40%; apoptosis (HCT116 cells; different concentrations of lenziamide A): apoptosis increased dependent on the concentration; tumor growth (volume, final weight) [13]: concentration-dependent tumor growth inhibitory effect; body weight (toxicity) ([13]; during administration period): no significant weight decrease; IC50 [2]: 360 nM
CCC(C)C1NC(=O)C(Cc2c[nH]c3ccccc23)N(C)C(=O)C2CCCNN2C(=O)C(CO)N(C)C(=O)C(CC(C)C)NC(C)C(Cc2ccccc2)N(C)C(=O)C(C)NC(=O)C(C(C)C)N(C)C(=O)CCNC(=O)C(C)N(C)C1=O (stereo not shown) [Lenziamide B]	–	–	200 nM	430 nM	250 nM	360 nM	220 nM	230 nM	–	> 20000 nM	–
CC(C)CC1NC(C)C(Cc2ccccc2)N(C)C(=O)C(C)NC(=O)C(C(C)C)N(C)C(=O)CCNC(=O)C(C)N(C)C(=O)C(C(C)C)NC(=O)C(Cc2ccccc2)N(C)C(=O)C2CCCNN2C(=O)C(CO)N(C)C1=O (stereo not shown) [Lenziamide C]	–	–	520 nM	760 nM	430 nM	650 nM	530 nM	960 nM	–	> 20000 nM	–
CC(C)CC1NC(C)C(Cc2ccccc2)N(C)C(=O)C(C)NC(=O)C(C(C)C)N(C)C(=O)CCNC(=O)C(C)NC(=O)C(C(C)C)NC(=O)C(Cc2ccccc2)N(C)C(=O)C2CCCNN2C(=O)C(CO)N(C)C1=O (stereo not shown) [Lenziamide E]	–	–	1010 nM	1780 nM	1320 nM	1210 nM	960 nM	1590 nM	–	> 20000 nM	–
